# Measured values reported in publication PMC4532424, “The Novel Cyclophilin Inhibitor CPI-431-32 Concurrently Blocks HCV and HIV-1 Infections via a Similar Mechanism of Action” (PLoS ONE, 2015).
# Like-named read-outs stand apart in the source and are kept apart here. Non-standard residues stand in square brackets, D forms with d. Residues, ends and D or L forms follow the SMILES beside them. NMeThr(4R-Me,4-(CH2)6NHAc) = CN[C@H](C(=O)O)[C@H](O)[C@H](C)CCCCCCNC(C)=O; NMeL = CN[C@@H](CC(C)C)C(=O)O; NMeV = CN[C@H](C(=O)O)C(C)C; dNMeA = CN[C@H](C)C(=O)O; Abu = CC[C@H](N)C(=O)O
# Columns and labels:
# [1] = target: CypA-HCV NS5A complex (Homo sapiens, UniProt P62937); assay: CypA-HCV NS5A interaction ELISA; conditions: Table 2; NS5A-His on GST-CypA-coated plates, 16 h at 4°C; read-out: IC50, inhibition of NS5A binding to CypA
# Procedure: (§1) Recombinant GST-CypA, full-length HCV NS5A Con1 (pET-Ub-NS5A Con1-His) and HIV-1 capsid NL4.3 (pET-capsid-His) were expressed and purified as described previously. Inhibition of CypA-HCV NS5A and CypA-HIV-1 capsid interactions by the CypI […] were conducted as we described previously.
# (§2) CypI are thought to inhibit the infection of HIV-1 and HCV mostly by preventing CypA-HIV-1 capsid and CypA-HCV NS5A interactions, respectively. The potency of CypI at inhibiting these interactions was determined using an ELISA assay previously developed in our laboratory. For analyzing CypA-HCV NS5A interactions, recombinant NS5A-His was added to GST-CypA-coated wells for 16 h at 4°C in the absence or presence of CypI, followed by detection of captured NS5A-His with anti-His antibodies. A similar assay was used for CypA-HIV-1 interactions except with recombinant His-tagged HIV-1 capsid.
# [2] = target: CypA-HIV-1 capsid complex (Homo sapiens, UniProt P62937); assay: CypA-HIV-1 capsid interaction ELISA; assay type: binding; conditions: 16 h at 4°C
# Procedure: as §1, §2
# [3] = test system: HIV-1 ALV-resistant (CMU8); assay: HIV-1 infection of TZM reporter cells, β-galactosidase; assay type: cell-based; conditions: read-out: EC50, inhibition of HIV-1 infection
# Source text: (§3) the reverse transcriptase inhibitor-resistant HIV-1 variant (nevirapine-resistant N119), the protease inhibitor-resistant HIV-1 variant (saquinavir-resistant), and the naturally occurring primary ALV-resistant variant CMU08 (contributed by Kenrad Nelson) were obtained from the AIDS Research and Reference Reagent Program. Lab-adapted wild-type NL4.3 and the ALV-resistant V86P/H87Q/I91V/M96I NL4.3 capsid mutant variant were described previously. For infection scoring, TZM-bl target cells (contributed by J. C. Kappes, X. Wu, and Tranzyme, Inc.) obtained through the AIDS Research and Reference Reagent Program were exposed to wild-type or drug-resistant HIV-1 variants (1 ng of p24) together with increasing concentrations of DMSO or CypI. HIV-1 infection was quantified 48 h post-infection by measuring β-galactosidase activity in cell lysates.
# (§4) We then tested the efficacy of CPI-431-32 and ALV against a panel of drug-resistant HIV-1 and HCV variants. Specifically, we measured CPI-431-32 EC50 on a reverse transcriptase inhibitor-resistant HIV-1 variant (nevirapine-resistant), a protease inhibitor-resistant HIV-1 variant (saquinavir-resistant), and two partially ALV-resistant HIV-1 variants—a lab-adapted resistant variant (V86P/H87Q/I91V/M96I capsid mutant) and a naturally occurring primary partially resistant variant (CMU08). […] HIV-1 infection was quantified 48 h post-infection by measuring β-galactosidase activity in cell lysates.
# [4] = test system: HIV-1 protease (saquinavir)-resistant; assay: as above; assay type: cell-based; conditions: read-out: EC50, inhibition of HIV-1 infection
# Source text: as §3, §4
# [5] = test system: HIV-1 ALV-resistant (NL4.3 V86P/H87Q/I91V/M96I); assay: as above; assay type: cell-based; conditions: read-out: EC50, inhibition of HIV-1 infection
# Source text: as §3, §4
# [6] = test system: HIV-1 wild-type (NL4.3); assay: as above; assay type: cell-based; conditions: read-out: EC50, inhibition of HIV-1 infection
# Source text: as §3, §4
# [7] = test system: HIV-1 reverse transcriptase (nevirapine)-resistant; assay: as above; assay type: cell-based; conditions: read-out: EC50, inhibition of HIV-1 infection
# Source text: as §3, §4
# [8] = test system: HCV ALV-resistant (D320E/Y321N); assay: HCV Luc-Con1 replicon replication in Huh7.5 cells, luciferase; assay type: cell-based; conditions: read-out: EC50, inhibition of HCV replication
# Procedure: (§5) The GT1b subgenomic firefly luciferase reporter replicon pFK-I389/NS3–3 was provided by R. Bartenschlager. The GT1B subgenomic NS3 (R155Q/A156T), NS5A (L31V, D320E/Y321N, S328P and P313A/P318A), and NS5B (S282T) mutants were created as previously. Half-maximal effective concentration (EC50) measurements were conducted as previously.
# (§6) We took advantage of the DAA-resistant HCV genotype 1b Con1 replicons that we previously generated: the NS3 inhibitor-resistant R155Q/A156T NS3, the NS5A inhibitor-resistant L31V NS5A replicon, and the NS5B inhibitor-resistant S282T NS5B replicons. […] EC50 HCV data are expressed in nM whereas EC50 HIV-1 data are expressed in μM.
# [9] = test system: HCV CsA-sensitive (P313A/P318A); assay: as above; assay type: cell-based; conditions: read-out: EC50, inhibition of HCV replication
# Procedure: as §5, §6
# [10] = test system: HCV NS5A-resistant (L31V); assay: as above; assay type: cell-based; conditions: read-out: EC50, inhibition of HCV replication
# Procedure: as §5, §6
# [11] = test system: HCV NS3-resistant (R155Q/A156T); assay: as above; assay type: cell-based; conditions: read-out: EC50, inhibition of HCV replication
# Procedure: as §5, §6
# [12] = test system: HCV NS5B-resistant (S282T); assay: as above; assay type: cell-based; conditions: read-out: EC50, inhibition of HCV replication
# Procedure: as §5, §6
# [13] = test system: HCV wild-type (Con1b); assay: as above; assay type: cell-based; conditions: 72 h, read-out: EC50, inhibition of HCV replication
# Procedure: as §5, §6
# [14] = test system: HCV CsA-sensitive (S328P); assay: as above; assay type: cell-based; conditions: read-out: EC50, inhibition of HCV replication
# Procedure: as §5, §6
# [15] = test system: HIV-1 JR-CSF; assay: HIV-1/HCV co-culture co-infection, HIV-1 p24 ELISA; assay type: cell-based
# Procedure: CD4+ T-lymphocytes and Huh7.5.1 cells uninfected or infected for 3 h as described above were mixed in a single flask and HIV-1 and HCV replication monitored over a period of 3 weeks as described above.
# HIV-1 target cells—CD4+ T-lymphocytes—and HCV target cells—hepatoma cells—were placed in a single chamber (flask), exposed to both HIV-1 and HCV, and viral replication monitored over time by p24 capsid and core ELISAs, respectively.
# CD4+ T-lymphocytes (A) and Huh7.5.1 cells (B) (0.5 x 10^6 cells) (triplicates) were exposed to HIV-1 JR-CSF and HCV JFH-1. Drugs (2 μM) were added 3 h pre-viral exposure (top panels) or 3 days post-viral exposure (bottom panels). Viral replications were monitored by HIV-1 p24 and HCV core ELISAs. C. CD4+ T-lymphocytes (0.5 x 10^6 cells) (triplicates) were exposed to HIV-1 JR-CSF. Drugs were initially added 3 days post-viral exposure (2 μM) and then daily (0.5 μM). Viral replications were monitored by HIV-1 p24 and HCV core ELISAs. […] D. Model for the HIV-1/HCV co-culture system.
# [16] = Human immunodeficiency virus 1, TZM, 48 h
# [17] = Hepatitis C virus, Huh7.5, 72 h
# [18] = drug treatments begun 3 h before virus addition
# [19] = single dose added 3 days post-infection
# Chain of CypA-HIV-1 capsid complex (P62937 whole entry, one chain of several): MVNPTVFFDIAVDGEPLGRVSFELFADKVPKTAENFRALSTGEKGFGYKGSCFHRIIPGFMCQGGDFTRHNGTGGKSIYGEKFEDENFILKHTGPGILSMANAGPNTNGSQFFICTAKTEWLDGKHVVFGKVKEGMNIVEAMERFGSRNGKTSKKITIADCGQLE
# Chain of CypA-HCV NS5A complex (P62937 whole entry, one chain of several): as above
structure (smiles),measurement,setting,value
"C/C=C/C[C@@H](C)[C@@H](O)[C@H]1C(=O)N[C@@H](CC)C(=O)N(C)[C@H](C)C(=O)N(CC)[C@@H](C(C)C)C(=O)N[C@@H](C(C)C)C(=O)N(C)[C@@H](CC(C)C)C(=O)N[C@@H](C)C(=O)N[C@H](C)C(=O)N(C)[C@@H](CC(C)C)C(=O)N(C)[C@@H](CC(C)C)C(=O)N(C)[C@@H](C(C)C)C(=O)N1C [ALV, Alisporivir]",IC50,[1],420 ± 50 nM
same,IC50,"[2]; IC50, inhibition of CypA-HIV-1 capsid interactions",410 ± 50 nM
same,IC50,"[2]; IC50, inhibition of capsid binding to CypA, Table 2, capsid-His on GST-CypA-coated plates",420 ± 110 nM
same,EC50,[3]; [16],5600 ± 400 nM
same,EC50,[4]; [16],160 ± 20 nM
same,EC50,[5]; [16],2300 ± 300 nM
same,EC50,"[6]; Human immunodeficiency virus 1, 48 h post-infection",120 ± 30 nM
same,EC50,[7]; [16],100 ± 20 nM
same,EC50,[8]; [17],44.2 ± 5.8 nM
same,EC50,[9]; [17],5.2 ± 0.6 nM
same,EC50,[10]; [17],16.5 ± 2.1 nM
same,EC50,[11]; [17],17.7 ± 1.9 nM
same,EC50,[12]; [17],15.6 ± 2.4 nM
same,EC50,[13]; Hepatitis C virus,16.6 ± 0.8 nM
same,EC50,[14]; [17],5.6 ± 1.1 nM
same,Effect on HIV-1 replication (in words),[15]; [18],totally prevented HIV-1 replication
same,Effect on HIV-1 replication (in words),[15]; [19],a small degree of replication occurred within the first 3 days of addition
"CC[C@@H]1NC(=O)[C@H]([C@H](O)[C@H](C)CCCCCCNC(C)=O)N(C)C(=O)[C@H](C(C)C)N(C)C(=O)[C@H](CC(C)C)N(C)C(=O)[C@H](CC(C)C)N(C)C(=O)[C@@H](C)NC(=O)[C@H](C)NC(=O)[C@H](CC(C)C)N(C)C(=O)[C@H](C(C)C)NC(=O)[C@H](CC(C)C)N(C)C(=O)[C@@H](C)N(C)C1=O [CPI-431-32] (cyclo(A[dA][NMeL][NMeL][NMeV][NMeThr(4R-Me,4-(CH2)6NHAc)][Abu][dNMeA][NMeL]V[NMeL]))",IC50,[1],180 ± 30 nM
same,IC50,"[2]; read-out: IC50, inhibition of CypA-HIV-1 capsid interactions",210 ± 10 nM
same,IC50,"[2]; Table 2, capsid-His on GST-CypA-coated plates, read-out: IC50, inhibition of capsid binding to CypA",230 ± 10 nM
same,EC50,"[3]; HIV-1 ALV-resistant (CMU8), TZM cells, 48 h post-infection",2100 ± 100 nM
same,EC50,"[4]; HIV-1 protease (saquinavir)-resistant, TZM cells, 48 h post-infection",70 ± 20 nM
same,EC50,"[5]; HIV-1 ALV-resistant (NL4.3 V86P/H87Q/I91V/M96I), TZM cells, 48 h post-infection",900 ± 100 nM
same,EC50,[6]; 48 h post-infection,50 ± 10 nM
same,EC50,"[7]; HIV-1 reverse transcriptase (nevirapine)-resistant, TZM cells, 48 h post-infection",30 ± 10 nM
same,EC50,"[8]; HCV ALV-resistant (D320E/Y321N) replicon, Huh7.5 cells, 72 h",26.5 ± 3.2 nM
same,EC50,"[9]; HCV CsA-sensitive (P313A/P318A) replicon, Huh7.5 cells, 72 h",4.7 ± 0.2 nM
same,EC50,"[10]; HCV NS5A-resistant (L31V) replicon, Huh7.5 cells, 72 h",8.9 ± 0.4 nM
same,EC50,"[11]; HCV NS3-resistant (R155Q/A156T) replicon, Huh7.5 cells, 72 h",11.3 ± 0.2 nM
same,EC50,"[12]; HCV NS5B-resistant (S282T) replicon, Huh7.5 cells, 72 h",8.3 ± 0.4 nM
same,EC50,[13],9.3 ± 0.4 nM
same,EC50,"[14]; HCV CsA-sensitive (S328P) replicon, Huh7.5 cells, 72 h",5.1 ± 0.3 nM
same,Effect on HIV-1 replication (in words),[15]; [18],totally prevented HIV-1 replication
same,Effect on HIV-1 replication (in words),[15]; [19],halted HIV-1 replication
